Results as given in PMC7265341, “Quantifying CDK inhibitor selectivity in live cells” (Nature Communications, 2020).
Values joined by “and” are separate entries in the source; they are usually repeats but may differ in a detail not shown here. Equal values may be shown once. Read-outs that look alike come from different tables or passages of the source.

What was measured:
Format in all cases: binding
CDK2/cyclin A1 = CDK2/cyclin A1 (Homo sapiens, UniProt P24941); experiment: NanoBRET target engagement, CDK2-NanoLuc co-expressed with cyclin A1 in HEK-293; conditions: probe 5 0.5µM
CDK6 [1] = molecular target: T1, CDK6 (Homo sapiens, UniProt Q00534); experiment: Intracellular residence time by cellular washout, CDK6; conditions: Panel B;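 also: NanoBRET cellular washout in live cells: compound preincubated 2 h at 37 °C, then removed, energy transfer probe association tracked over time versus DMSO vehicle, rising BRET indicating target release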
T1 sequence (Q00534 whole entry): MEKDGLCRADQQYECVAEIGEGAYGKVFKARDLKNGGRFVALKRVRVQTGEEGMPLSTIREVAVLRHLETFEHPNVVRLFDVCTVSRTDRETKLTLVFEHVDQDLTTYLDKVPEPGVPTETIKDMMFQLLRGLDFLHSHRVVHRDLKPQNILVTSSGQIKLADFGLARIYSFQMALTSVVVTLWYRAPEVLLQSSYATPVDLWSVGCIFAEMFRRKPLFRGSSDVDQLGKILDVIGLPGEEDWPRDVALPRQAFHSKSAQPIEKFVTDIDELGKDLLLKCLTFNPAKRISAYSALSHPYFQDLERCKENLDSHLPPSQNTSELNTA
T1 sequence (P24385 whole entry partner): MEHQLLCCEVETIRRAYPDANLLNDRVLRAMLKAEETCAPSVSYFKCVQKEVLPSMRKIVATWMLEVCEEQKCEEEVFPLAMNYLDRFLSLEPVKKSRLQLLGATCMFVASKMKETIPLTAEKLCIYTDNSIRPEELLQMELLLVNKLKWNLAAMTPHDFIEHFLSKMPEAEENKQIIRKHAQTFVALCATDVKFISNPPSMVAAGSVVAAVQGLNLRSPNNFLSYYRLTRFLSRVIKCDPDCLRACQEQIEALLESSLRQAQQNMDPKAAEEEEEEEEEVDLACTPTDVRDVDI

CDK13/Cyclin K = CDK13/Cyclin K (Homo sapiens, UniProt Q14004); experiment: NanoBRET live-cell target engagement, CDK13-NanoLuc/Cyclin K in HEK-293; conditions: 10µM, read-out: CDK13/K Inhibition at 10µM (%)
CDK13/Cyclin K, sequence (O75909 whole entry): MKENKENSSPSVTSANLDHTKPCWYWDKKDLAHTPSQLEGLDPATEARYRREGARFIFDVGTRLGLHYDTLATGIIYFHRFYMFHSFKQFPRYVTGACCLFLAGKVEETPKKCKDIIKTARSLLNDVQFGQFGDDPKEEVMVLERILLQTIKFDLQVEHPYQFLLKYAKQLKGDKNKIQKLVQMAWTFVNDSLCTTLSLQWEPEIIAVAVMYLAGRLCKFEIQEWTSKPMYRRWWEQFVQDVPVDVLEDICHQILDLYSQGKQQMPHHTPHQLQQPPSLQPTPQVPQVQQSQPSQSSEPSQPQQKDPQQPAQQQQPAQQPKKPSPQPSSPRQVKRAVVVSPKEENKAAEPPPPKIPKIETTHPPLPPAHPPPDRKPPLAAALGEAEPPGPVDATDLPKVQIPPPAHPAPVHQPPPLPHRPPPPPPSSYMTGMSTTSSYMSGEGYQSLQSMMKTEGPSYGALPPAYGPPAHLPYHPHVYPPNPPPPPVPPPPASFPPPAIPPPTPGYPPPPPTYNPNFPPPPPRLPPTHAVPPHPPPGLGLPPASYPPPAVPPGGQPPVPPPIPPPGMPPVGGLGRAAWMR
CDK13/Cyclin K, sequence (Q14004 other isoform, or with tags, fused parts or gaps): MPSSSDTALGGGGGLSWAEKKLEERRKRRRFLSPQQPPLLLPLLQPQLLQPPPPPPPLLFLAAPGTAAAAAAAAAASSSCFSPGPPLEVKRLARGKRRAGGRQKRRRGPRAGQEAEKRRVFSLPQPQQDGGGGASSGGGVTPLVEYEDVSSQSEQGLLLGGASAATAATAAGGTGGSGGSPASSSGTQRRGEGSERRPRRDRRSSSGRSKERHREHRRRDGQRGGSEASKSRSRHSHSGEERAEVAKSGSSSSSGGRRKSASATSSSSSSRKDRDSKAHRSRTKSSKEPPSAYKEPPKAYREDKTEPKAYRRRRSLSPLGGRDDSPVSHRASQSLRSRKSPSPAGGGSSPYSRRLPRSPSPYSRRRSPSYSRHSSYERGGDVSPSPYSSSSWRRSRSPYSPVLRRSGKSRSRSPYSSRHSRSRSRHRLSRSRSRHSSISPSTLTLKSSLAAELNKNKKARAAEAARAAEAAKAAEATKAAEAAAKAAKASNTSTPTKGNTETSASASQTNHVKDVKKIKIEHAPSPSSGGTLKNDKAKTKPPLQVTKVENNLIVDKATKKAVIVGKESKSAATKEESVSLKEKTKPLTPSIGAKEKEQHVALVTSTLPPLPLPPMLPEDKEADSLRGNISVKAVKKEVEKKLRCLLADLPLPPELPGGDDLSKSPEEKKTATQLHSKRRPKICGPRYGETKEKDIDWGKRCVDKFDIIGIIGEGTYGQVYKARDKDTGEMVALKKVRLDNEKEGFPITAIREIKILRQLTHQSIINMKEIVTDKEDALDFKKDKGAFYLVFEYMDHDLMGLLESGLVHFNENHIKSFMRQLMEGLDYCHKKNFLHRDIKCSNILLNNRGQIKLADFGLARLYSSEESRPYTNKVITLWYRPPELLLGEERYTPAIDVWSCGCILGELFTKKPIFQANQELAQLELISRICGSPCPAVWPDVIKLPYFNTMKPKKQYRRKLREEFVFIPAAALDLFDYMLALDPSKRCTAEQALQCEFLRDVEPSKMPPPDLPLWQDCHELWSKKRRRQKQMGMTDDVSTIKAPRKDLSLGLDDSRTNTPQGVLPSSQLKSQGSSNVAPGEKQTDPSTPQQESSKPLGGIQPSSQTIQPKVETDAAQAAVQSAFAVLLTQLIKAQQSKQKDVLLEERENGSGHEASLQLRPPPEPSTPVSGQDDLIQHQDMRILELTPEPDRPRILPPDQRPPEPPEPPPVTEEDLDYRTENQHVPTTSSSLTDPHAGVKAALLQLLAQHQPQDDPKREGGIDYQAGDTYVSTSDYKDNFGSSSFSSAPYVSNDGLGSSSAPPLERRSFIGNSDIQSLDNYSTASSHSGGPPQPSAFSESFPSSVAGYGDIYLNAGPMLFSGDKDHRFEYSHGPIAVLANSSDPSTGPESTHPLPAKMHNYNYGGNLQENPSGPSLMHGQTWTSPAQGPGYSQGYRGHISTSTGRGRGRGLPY

CDK6 [2] = molecular target: T1, CDK6; experiment: Real-time analysis of engagement (kobs, IC50 vs time) in live cells, CDK6; conditions: real-time BRET, 25 °C; response to reviewers
Description: CDK2/Cyclin E1 complex was measured in the donor NanoBRET channel (using the standard 450 nm bandpass filter on the Glomax Discover plate reader). Ternary complex was measured in the presence […]
the acceptor NanoBRET channel (using the standard 600 nm longpass filter on the Glomax Discover plate reader). Total LgBiT expression level was determined in the presence of a saturating concentration […]
mg/mL digitonin (as a permeabilization agent). […]
respectively, at probe concentrations identical to those described for steady state analysis of target engagement. Cells were pre-equilibrated with energy transfer probe for 40 min prior to addition of […]
intervals at 25 °C (temperature reduced to avoid evaporation of cell culture medium). To quantify […]
vs time. Apparent association rate was also plotted as k obs vs [RGB286638], where kobs was determined using the one phase association equation (Supplementary Equation 2) in graphpad prism.
Y=Y0 + (Plateau-Y0)*(1-e-K*X) (2) where Y = mBRET ratio, X = time, and K = the observed rate constant ( kobs). Both analyses support […]
Generation of endogenously edited CDK-HiBiT cell lines and target engagement analysis at endogenous protein levels. HEK293 cells were edited to express HiBiT fused to the N -terminus of CDK9 or the C-terminus of CDK16, as described previously 3. For CDK9, the sequence of the guide RNA was […]

CDK12/Cyclin K = CDK12/Cyclin K (Homo sapiens, UniProt Q9NYV4); experiment: NanoBRET live-cell target engagement, CDK12-NanoLuc/Cyclin K in HEK-293; conditions: read-out: CDK12/K Inhibition at 10µM (%), 10µM
CDK12/Cyclin K, sequence (Q9NYV4 1-1481 isoform Q9NYV4-2): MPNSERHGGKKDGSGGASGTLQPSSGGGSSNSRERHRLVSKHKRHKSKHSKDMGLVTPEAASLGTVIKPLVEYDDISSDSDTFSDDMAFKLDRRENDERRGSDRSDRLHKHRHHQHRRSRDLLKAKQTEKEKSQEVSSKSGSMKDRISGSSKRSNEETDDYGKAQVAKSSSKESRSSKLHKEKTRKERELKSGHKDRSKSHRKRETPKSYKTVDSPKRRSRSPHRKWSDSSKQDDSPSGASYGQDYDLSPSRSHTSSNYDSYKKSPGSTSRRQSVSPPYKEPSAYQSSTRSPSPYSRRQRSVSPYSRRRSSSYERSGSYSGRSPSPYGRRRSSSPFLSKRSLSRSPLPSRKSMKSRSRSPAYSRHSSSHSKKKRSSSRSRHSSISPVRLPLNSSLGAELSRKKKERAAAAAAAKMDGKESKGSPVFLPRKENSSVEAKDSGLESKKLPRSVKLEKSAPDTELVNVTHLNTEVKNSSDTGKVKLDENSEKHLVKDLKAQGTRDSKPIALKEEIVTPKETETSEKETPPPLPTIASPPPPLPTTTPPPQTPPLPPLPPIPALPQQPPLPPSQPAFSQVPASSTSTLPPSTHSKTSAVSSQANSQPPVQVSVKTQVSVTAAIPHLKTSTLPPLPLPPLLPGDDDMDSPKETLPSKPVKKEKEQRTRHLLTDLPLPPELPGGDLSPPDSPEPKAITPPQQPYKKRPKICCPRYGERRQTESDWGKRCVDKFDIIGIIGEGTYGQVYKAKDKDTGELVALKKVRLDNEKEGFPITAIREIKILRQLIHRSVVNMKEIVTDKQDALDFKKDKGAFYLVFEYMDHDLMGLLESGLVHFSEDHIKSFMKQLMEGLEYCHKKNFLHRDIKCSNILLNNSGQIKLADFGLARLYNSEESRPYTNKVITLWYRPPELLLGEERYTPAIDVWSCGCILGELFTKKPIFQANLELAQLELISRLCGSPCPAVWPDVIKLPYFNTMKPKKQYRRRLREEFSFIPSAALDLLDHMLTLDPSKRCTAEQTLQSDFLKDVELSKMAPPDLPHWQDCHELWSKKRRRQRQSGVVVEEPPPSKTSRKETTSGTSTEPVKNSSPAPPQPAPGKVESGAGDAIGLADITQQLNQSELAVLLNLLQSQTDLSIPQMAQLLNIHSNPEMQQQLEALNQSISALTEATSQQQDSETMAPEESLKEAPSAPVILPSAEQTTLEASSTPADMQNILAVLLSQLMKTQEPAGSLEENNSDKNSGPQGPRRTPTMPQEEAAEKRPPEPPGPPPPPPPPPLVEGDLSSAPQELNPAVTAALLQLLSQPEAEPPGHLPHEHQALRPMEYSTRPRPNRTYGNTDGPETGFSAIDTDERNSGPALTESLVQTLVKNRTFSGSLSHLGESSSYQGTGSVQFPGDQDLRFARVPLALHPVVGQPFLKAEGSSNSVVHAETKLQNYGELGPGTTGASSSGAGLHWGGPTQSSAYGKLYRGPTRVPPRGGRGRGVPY
CDK12/Cyclin K, sequence (O75909 whole entry partner): as the sequence (O75909 whole entry) above

With `COCCN1CCN(Cc2ccc(-c3n[nH]c4c3C(=O)c3c(NC(=O)NN5CCOCC5)cccc3-4)cc2)CC1` [RGB286638] the “increase of CDK2 engagement potency with cyclin E1 compared with cyclin A1 co-expression” value (CDK2/cyclin A1) was ~2 orders of magnitude, the “CDK6 occupancy (%) over time after compound washout” value (“CDK6 occupancy (%) over time” below) (CDK6 [1]; Time (Min) 0) was 82.1951 and 85.1351 and 80.5402 and the “CDK6 occupancy (%) over time” value (CDK6 [1]; Time (Min) 2.97013) was 79.5935 and 83.3333 and 77.8966. For the same compound, the “CDK6 occupancy (%) over time” value (CDK6 [1]; Time (Min) 5.97045) was 77.3984 and 80.6306 and 74.3678, the “CDK6 occupancy (%) over time” value (CDK6 [1]; Time (Min) 8.97078) was 75.7724 and 78.2883 and 76.8161 and the “CDK6 occupancy (%) over time” value (CDK6 [1]; Time (Min) 11.9714) was 73.9024 and 76.5766 and 70.3448. The “CDK6 occupancy (%) over time” value (CDK6 [1]; Time (Min) 14.9718) was 72.7642 and 74.3243 and 69.1954, the “CDK6 occupancy (%) over time” value (CDK6 [1]; Time (Min) 17.9723) was 71.5447 and 72.4324 and 67.4713 and the “CDK6 occupancy (%) over time” value (CDK6 [1]; Time (Min) 20.9723) was 70.4878 and 71.2613 and 68.046. The “CDK6 occupancy (%) over time” value (CDK6 [1]; Time (Min) 23.9731) was 69.0244 and 70.3604 and 68.6207, the “CDK6 occupancy (%) over time” value (CDK6 [1]; Time (Min) 26.9737) was 68.8618 and 68.5586 and 67.4713 and the “CDK6 occupancy (%) over time” value (CDK6 [1]; Time (Min) 29.9742) was 67.3171 and 67.8378 and 66.8966. For the same compound, the “CDK6 occupancy (%) over time” value (CDK6 [1]; Time (Min) 32.9743, listed as RGB-286638) was 67.6423 and 66.9369 and 67.1264, the “CDK6 occupancy (%) over time” value (CDK6 [1]; Time (Min) 35.9749) was 67.2358 and 66.5766 and 66.0919 and the “CDK6 occupancy (%) over time” value (CDK6 [1]; Time (Min) 38.9753) was 66.8293. The “CDK6 occupancy (%) over time” value (CDK6 [1]; Time (Min) 236.996) was 66.1789 and 64.7748 and 56.7816, the “CDK6 occupancy (%) over time” value (CDK6 [1]; Time (Min) 239.996) was 65.6911 and 64.3243 and 56.5517 and the “CDK6 occupancy (%) over time” value (CDK6 [1]; Time (Min) 242.996) was 66.4228 and 63.0631 and 56.3218. The “CDK6 occupancy (%) over time” value (CDK6 [1]; Time (Min) 245.996) was 65.6911 and 63.5135 and 59.5402, the “CDK6 occupancy (%) over time” value (CDK6 [1]; Time (Min) 248.996) was 65.6911 and 63.0631 and 59.5402 and the “CDK6 occupancy (%) over time” value (CDK6 [1]; Time (Min) 251.996) was 65.7724 and 63.1531 and 61.6092. The “CDK6 occupancy (%) over time” value (CDK6 [1]; Time (Min) 254.996) was 65.8537 and 64.3243 and 54.7126, the “CDK6 occupancy (%) over time” value (CDK6 [1]; Time (Min) 257.996) was 64.9594 and 63.3333 and 57.7011 and the “CDK6 occupancy (%) over time” value (CDK6 [1]; Time (Min) 260.996) was 65.1219 and 63.8739 and 51.954. For the same compound, the “CDK6 occupancy (%) over time” value (CDK6 [1]; Time (Min) 263.996) was 63.9024 and 63.4234 and 57.1264, the “CDK6 occupancy (%) over time” value (CDK6 [1]; Time (Min) 266.996, listed as RGB-286638) was 65.5285 and 63.1531 and 57.4713 and the “CDK6 occupancy (%) over time” value (CDK6 [1]; Time (Min) 269.996) was 64.7968 and 62.5225 and 59.6552. The “CDK6 occupancy (%) over time” value (CDK6 [1]; Time (Min) 272.996) was 65.8537 and 62.5225 and 60.3448, the “CDK6 occupancy (%) over time” value (CDK6 [1]; Time (Min) 275.996) was 64.3902 and 62.0721 and 53.3333 and the “CDK6 occupancy (%) over time” value (CDK6 [1]; Time (Min) 278.996) was 65.2032 and 62.6126 and 63.7931. For the same compound, the “CDK6 occupancy (%) over time” value (CDK6 [1]; Time (Min) 281.996) was 64.8781 and 62.0721 and 57.7011, the “CDK6 occupancy (%) over time” value (CDK6 [1]; Time (Min) 284.996) was 65.7724 and 63.3333 and 62.8736 and the “CDK6 occupancy (%) over time” value (CDK6 [1]; Time (Min) 287.996) was 63.5772 and 62.5225 and 61.3793. For the same compound, the “CDK6 occupancy (%) over time” value (CDK6 [1]; Time (Min) 290.996) was 62.6016 and 62.5225 and 59.8851, the “CDK6 occupancy (%) over time” value (CDK6 [1]; Time (Min) 293.996) was 64.5529 and 62.8829 and 61.8391 and the inhibition at 10 µM (CDK13/Cyclin K; average of experiments) was 49.1%. For the same compound, the inhibition at 10 µM (CDK13/Cyclin K; independent experiment 1) was 33.8%, the inhibition at 10 µM (CDK13/Cyclin K; independent experiment 2) was 64.5% and the “CDK6 off rate from kobs values” (CDK6 [2]) was greater than 300 min. It also gave an inhibition at 10 µM (CDK12/Cyclin K; average of experiments) of 47.5%, an inhibition at 10 µM (CDK12/Cyclin K; independent experiment 1) of 30.7% and an inhibition at 10 µM (CDK12/Cyclin K; independent experiment 2) of 64.4%.
